Numbers after ± are expanded uncertainties.

These results are taken from the NIST ThermoML archive (doi:10.1016/j.fluid.2007.09.021).

The nature of this data set: activity coefficient (dimensionless); of the first substance listed, at infinite dilution; xn = mol fraction of the nth substance listed. Particulars: Liquid, x1 = 0.
Setting [1] is: 398.15 K, Differential ebulliometry.
Setting [2] is: 409.15 K, Differential ebulliometry.
The mark [3] stands for this setting: 343.15 K, Differential ebulliometry.
The mark [4] stands for this setting: 368.15 K, Differential ebulliometry.
[5] abbreviates: 378.15 K, Differential ebulliometry.
[6] abbreviates: 388.15 K, Differential ebulliometry.

In the case of `CCCCO` [butan-1-ol] + CCc1ccccc1, the activity coefficient came out at 11.8 ± 0.6 (303.15 K, Chromatography); 9.49 ± 0.5 (313.15 K, Chromatography); 7.63 ± 0.39 (323.15 K, Chromatography); 2.55 ± 0.26 under setting [1]; 2.24 ± 0.14 under setting [2].

As for `CCO` [ethanol] + CCc1ccccc1, the activity coefficient reads like this: (293.15 K, Chromatography) 20.1 ± 0.8; (303.15 K, Chromatography) 16.2 ± 0.7; (313.15 K, Chromatography) 13.7 ± 0.7; (323.15 K, Chromatography) 11.2 ± 0.4.

Consider `CCc1ccccc1` [ethylbenzene] + CCCCCCO, for which, where the note is “323.15 K, Chromatography”, the activity coefficient was 2.77 ± 0.11.

As to `CCc1ccccc1` [ethylbenzene] + CCCCCO, under “323.15 K, Chromatography”, the activity coefficient turned out to be 3.37 ± 0.12.

In the case of `CCc1ccccc1` [ethylbenzene] + CCCCO, under “323.15 K, Chromatography”, the activity coefficient came to 3.84 ± 0.15.

With `CCc1ccccc1` [ethylbenzene] + CCCO, the activity coefficient is 4.48 ± 0.08 under setting [3]; 4.21 ± 0.08 (353.15 K, Differential ebulliometry); 3.98 ± 0.08 (363.15 K, Differential ebulliometry); 3.8 ± 0.08 (370.15 K, Differential ebulliometry).

With `CCc1ccccc1` [ethylbenzene] + CCO, the activity coefficient reads like this: (323.15 K, Differential ebulliometry) 6.86 ± 0.14; (333.15 K, Differential ebulliometry) 6.53 ± 0.14; under setting [3], 6.19 ± 0.12; (351.15 K, Differential ebulliometry) 5.9 ± 0.12.

For the compound `CCc1ccccc1` [ethylbenzene] + CO, the activity coefficient stood at 12.8 ± 0.2 (308.15 K, Differential ebulliometry); 12.2 ± 0.2 (318.15 K, Differential ebulliometry); 11.8 ± 0.2 (328.15 K, Differential ebulliometry); 11.4 ± 0.2 (337.15 K, Differential ebulliometry).

Take `CCCCCCO` [hexan-1-ol] + CCc1ccccc1: the activity coefficient turned out to be 3.25 ± 0.06 under setting [4]; 2.95 ± 0.18 under setting [5]; 2.62 ± 0.06 under setting [6]; 2.43 ± 0.1 under setting [1]; 2.11 ± 0.04 under setting [2].

For `CO` [methanol] + CCc1ccccc1, the activity coefficient by setting is: (293.15 K, Chromatography) 26.2 ± 1.3; (303.15 K, Chromatography) 21.4 ± 1.1; (313.15 K, Chromatography) 18 ± 1; (323.15 K, Chromatography) 15 ± 0.8.

As to `CCCCCO` [pentan-1-ol] + CCc1ccccc1, the activity coefficient is, setting by setting: under setting [4], 3.62 ± 0.08; under setting [5], 3.19 ± 0.06; under setting [6], 2.89 ± 0.06; under setting [1], 2.57 ± 0.06; under setting [2], 2.29 ± 0.06.

Consider `CCCO` [propan-1-ol] + CCc1ccccc1, for which the activity coefficient is, setting by setting: (293.15 K, Chromatography) 15.8 ± 0.8; (303.15 K, Chromatography) 12.9 ± 0.7; (313.15 K, Chromatography) 10.3 ± 0.7; (323.15 K, Chromatography) 8.7 ± 0.44.
